# Assay results reported in ChEMBL document CHEMBL5512619, “Anticancer mechanism of coumarin-based derivatives” (Eur J Med Chem, 2024).
# pIC50, pKi: −log10 of the molar value.
# What was measured:
# [1] = tested on: A549; assay: Antiproliferative activity against human A549 cells incubated 24 hrs by MTT assay; format: functional, cell-based; details: A549, 24 h
# [2] = tested on: MDA-MB-231; assay: Antiproliferative activity against human MDA-MB-231 cells incubated 24 hrs by MTT assay; format: functional, cell-based; details: MDA-MB-231, 24 h
# [3] = tested on: MCF7; assay: Antiproliferative activity against human MCF7 cells assessed as inhibition of cell growth after 72 hrs by MTT assay; format: functional, cell-based; details: MCF7, 72 h
# [4] = Antiproliferative activity against human Lu1 cells assessed as inhibition of cell growth after 72 hrs by MTT assay; format: functional, cell-based; details: Lu1, 72 h
# [5] = tested on: HepG2; assay: Antiproliferative activity against human HepG2 cells assessed as inhibition of cell growth after 72 hrs by MTT assay; format: functional, cell-based; details: HepG2, 72 h
# [6] = tested on: SK-MEL-2; assay: Antiproliferative activity against human SK-MEL-2 cells assessed as inhibition of cell growth after 72 hrs by MTT assay; format: functional, cell-based; details: SK-MEL-2, 72 h
# [7] = tested on: HeLa; assay: Antiproliferative activity against human HeLa cells assessed as inhibition of cell growth after 72 hrs by MTT assay; format: functional, cell-based
# [8] = tested on: HepG2; assay: Cytotoxicity against human HepG2 cells; format: functional, cell-based
# [9] = tested on: HeLa; assay: Cytotoxicity against human HeLa cells; format: functional, cell-based
# [10] = Cytotoxicity against human Lu1 cells; format: functional, cell-based
# [11] = biological target: Carbonic anhydrase 2 (Homo sapiens, UniProt P00918); assay: Binding affinity to human CA2 assessed as inhibition constant incubated for 10 mins by phenol red dye based stopped flow CO2 hydration assay
# [12] = biological target: Carbonic anhydrase 1 (Homo sapiens, UniProt P00915); assay: Binding affinity to human CA1 assessed as inhibition constant incubated for 10 mins by phenol red dye based stopped flow CO2 hydration assay
# Carbonic anhydrase 1, sequence (P00915 whole entry): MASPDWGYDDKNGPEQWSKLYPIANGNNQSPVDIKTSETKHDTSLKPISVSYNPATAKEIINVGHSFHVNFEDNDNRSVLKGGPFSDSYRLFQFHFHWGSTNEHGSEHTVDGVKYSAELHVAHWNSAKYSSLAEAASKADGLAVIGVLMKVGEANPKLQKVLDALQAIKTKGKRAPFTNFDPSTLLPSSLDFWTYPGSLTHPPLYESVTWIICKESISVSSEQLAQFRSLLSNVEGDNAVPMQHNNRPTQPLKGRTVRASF
# [13] = biological target: Receptor tyrosine-protein kinase erbB-2 (Homo sapiens, UniProt P04626); assay: Inhibition of HER2 (unknown origin)
# Receptor tyrosine-protein kinase erbB-2, sequence (P04626 whole entry): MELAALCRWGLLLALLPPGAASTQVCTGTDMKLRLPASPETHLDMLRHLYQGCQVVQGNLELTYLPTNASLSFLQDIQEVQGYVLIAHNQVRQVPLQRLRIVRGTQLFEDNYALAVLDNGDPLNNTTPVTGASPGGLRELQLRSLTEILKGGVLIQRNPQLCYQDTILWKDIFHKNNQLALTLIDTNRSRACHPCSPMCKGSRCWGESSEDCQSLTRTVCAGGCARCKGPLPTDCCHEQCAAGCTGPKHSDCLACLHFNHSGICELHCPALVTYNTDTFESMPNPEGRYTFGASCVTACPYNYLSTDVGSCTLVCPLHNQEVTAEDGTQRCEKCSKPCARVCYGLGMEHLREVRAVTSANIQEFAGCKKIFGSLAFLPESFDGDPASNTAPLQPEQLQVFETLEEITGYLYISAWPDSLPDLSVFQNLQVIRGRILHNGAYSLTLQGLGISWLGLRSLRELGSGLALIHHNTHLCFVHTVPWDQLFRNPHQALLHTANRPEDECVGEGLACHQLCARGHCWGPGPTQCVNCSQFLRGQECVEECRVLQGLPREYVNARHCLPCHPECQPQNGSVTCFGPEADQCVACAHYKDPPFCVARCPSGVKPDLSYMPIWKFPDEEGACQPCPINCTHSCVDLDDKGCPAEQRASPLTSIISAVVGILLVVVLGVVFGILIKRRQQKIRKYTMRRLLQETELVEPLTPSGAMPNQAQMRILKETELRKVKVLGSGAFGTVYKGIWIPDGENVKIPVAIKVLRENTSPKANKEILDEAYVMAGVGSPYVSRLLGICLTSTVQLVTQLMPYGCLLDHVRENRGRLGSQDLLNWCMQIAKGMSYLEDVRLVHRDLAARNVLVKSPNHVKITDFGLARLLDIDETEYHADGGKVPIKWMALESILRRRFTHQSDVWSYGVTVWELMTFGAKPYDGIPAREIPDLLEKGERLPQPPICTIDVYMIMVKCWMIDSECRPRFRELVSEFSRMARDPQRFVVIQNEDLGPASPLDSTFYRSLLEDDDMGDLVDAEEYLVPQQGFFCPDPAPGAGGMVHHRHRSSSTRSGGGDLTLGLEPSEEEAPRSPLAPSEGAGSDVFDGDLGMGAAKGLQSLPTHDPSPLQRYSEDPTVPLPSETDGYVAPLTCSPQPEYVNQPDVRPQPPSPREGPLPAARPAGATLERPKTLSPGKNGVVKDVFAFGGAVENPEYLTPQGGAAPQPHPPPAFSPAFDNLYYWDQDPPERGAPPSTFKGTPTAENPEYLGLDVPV
# [14] = biological target: Epidermal growth factor receptor (Homo sapiens, UniProt P00533); assay: Inhibition of EGFR (unknown origin)
# Epidermal growth factor receptor, sequence (P00533 whole entry): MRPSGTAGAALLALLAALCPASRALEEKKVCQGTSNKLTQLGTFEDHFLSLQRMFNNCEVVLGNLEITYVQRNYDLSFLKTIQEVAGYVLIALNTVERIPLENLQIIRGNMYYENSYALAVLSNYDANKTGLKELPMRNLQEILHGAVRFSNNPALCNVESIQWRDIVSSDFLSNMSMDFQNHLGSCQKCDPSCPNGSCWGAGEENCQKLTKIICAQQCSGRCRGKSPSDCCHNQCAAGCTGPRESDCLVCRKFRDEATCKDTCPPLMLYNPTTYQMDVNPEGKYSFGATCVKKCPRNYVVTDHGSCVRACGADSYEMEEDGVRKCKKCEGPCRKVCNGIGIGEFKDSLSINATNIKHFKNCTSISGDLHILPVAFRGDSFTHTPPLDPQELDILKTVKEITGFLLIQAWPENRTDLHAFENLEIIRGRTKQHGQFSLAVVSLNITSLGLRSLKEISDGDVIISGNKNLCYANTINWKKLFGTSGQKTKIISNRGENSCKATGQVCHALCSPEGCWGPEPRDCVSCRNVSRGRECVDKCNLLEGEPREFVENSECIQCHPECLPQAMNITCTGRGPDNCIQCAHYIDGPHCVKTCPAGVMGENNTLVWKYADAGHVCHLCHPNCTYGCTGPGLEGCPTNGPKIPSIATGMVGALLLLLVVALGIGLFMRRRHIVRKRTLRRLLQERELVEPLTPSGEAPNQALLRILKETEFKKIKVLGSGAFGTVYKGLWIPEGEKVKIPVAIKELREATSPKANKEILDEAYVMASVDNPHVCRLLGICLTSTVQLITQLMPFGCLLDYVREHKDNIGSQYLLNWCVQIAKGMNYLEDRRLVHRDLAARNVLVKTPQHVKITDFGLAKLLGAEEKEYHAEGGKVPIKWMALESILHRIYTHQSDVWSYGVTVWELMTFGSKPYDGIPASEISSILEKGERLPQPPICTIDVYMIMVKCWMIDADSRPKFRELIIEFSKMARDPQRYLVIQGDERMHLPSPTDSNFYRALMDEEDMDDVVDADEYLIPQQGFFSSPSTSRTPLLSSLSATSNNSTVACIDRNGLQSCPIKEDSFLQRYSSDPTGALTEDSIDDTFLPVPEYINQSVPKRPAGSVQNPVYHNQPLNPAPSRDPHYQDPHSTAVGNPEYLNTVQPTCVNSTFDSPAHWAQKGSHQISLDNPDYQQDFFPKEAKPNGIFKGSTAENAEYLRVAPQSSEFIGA
# [15] = tested on: HepG2; assay: Cytotoxicity against human HepG2 cells incubated for 72 hrs by MTT assay; format: functional, cell-based; details: HepG2, 72 h
# [16] = Cytotoxicity against human Lu1 cells incubated for 72 hrs by MTT assay; format: functional, cell-based; details: Lu1, 72 h
# [17] = tested on: HeLa; assay: Cytotoxicity against human HeLa cells incubated for 72 hrs by MTT assay; format: functional, cell-based
compound,measurement,setting,value
COc1ccccc1-c1cc(-c2cc3ccccc3oc2=O)nc(Cc2ccc(F)cc2)n1,pIC50,[1],> 5.00
same,pIC50,[2],> 5.00
O=c1oc2ccccc2cc1-c1cc(-c2cccc(Cl)c2)nc(Cc2ccc(F)cc2)n1,pIC50,[1],> 5.00
same,pIC50,[2],> 5.00
O=c1oc2ccccc2cc1-c1cc(-c2ccccc2Br)nc(Cc2ccc(F)cc2)n1,pIC50,[1],> 5.00
same,pIC50,[2],> 5.00
O=c1oc2ccccc2cc1-c1cc(-c2ccccc2Cl)nc(Cc2ccc(F)cc2)n1,pIC50,[1],> 5.00
same,pIC50,[2],> 5.00
Cc1ccccc1-c1cc(-c2cc3ccccc3oc2=O)nc(Cc2ccc(F)cc2)n1,pIC50,[1],> 5.00
same,pIC50,[2],> 5.00
Cc1cccc(-c2cc(-c3cc4ccccc4oc3=O)nc(Cc3ccc(F)cc3)n2)c1,pIC50,[1],> 5.00
same,pIC50,[2],> 5.00
COc1ccc(-c2cc(-c3cc4ccccc4oc3=O)nc(Cc3ccc(F)cc3)n2)cc1,pIC50,[1],> 5.00
same,pIC50,[2],> 5.00
Cc1ccc(-c2cc(-c3cc4ccccc4oc3=O)nc(Cc3ccc(F)cc3)n2)cc1,pIC50,[1],> 5.00
same,pIC50,[2],> 5.00
O=c1oc2ccccc2cc1-c1cc(-c2cccc(Br)c2)nc(Cc2ccc(F)cc2)n1,pIC50,[1],> 5.00
same,pIC50,[2],> 5.00
O=c1oc2ccccc2cc1-c1cc(-c2ccc(Br)cc2)nc(Cc2ccc(F)cc2)n1,pIC50,[1],> 5.00
same,pIC50,[2],> 5.00
O=c1oc2ccccc2cc1-c1cc(-c2ccc(Cl)cc2)nc(Cc2ccc(F)cc2)n1,pIC50,[1],> 5.00
same,pIC50,[2],> 5.00
COc1cccc(-c2cc(-c3cc4ccccc4oc3=O)nc(Cc3ccc(F)cc3)n2)c1,pIC50,[1],> 5.00
same,pIC50,[2],> 5.00
CC(=O)OC[C@H]1O[C@@H](NC(=S)N/N=C(\C)c2cc3ccccc3oc2=O)[C@H](OC(C)=O)[C@@H](OC(C)=O)[C@H]1OC(C)=O,pIC50,[3],5.89
same,pIC50,[4],5.89
same,pIC50,[5],5.89
same,pIC50,[6],5.89
same,pIC50,[7],5.89
CC(=O)OC[C@H]1O[C@@H](n2c(-c3ccccc3)cs/c2=N\N=C(/C)c2cc3cc(Cl)ccc3oc2=O)[C@H](OC(C)=O)[C@@H](OC(C)=O)[C@H]1OC(C)=O,pIC50,[8],5.93
same,pIC50,[9],5.93
same,pIC50,[10],5.93
CC(=O)OC[C@H]1O[C@@H](n2c(-c3ccccc3)cs/c2=N\N=C(/C)c2cc3cc(Br)ccc3oc2=O)[C@H](OC(C)=O)[C@@H](OC(C)=O)[C@H]1OC(C)=O,pIC50,[8],5.93
same,pIC50,[9],5.93
same,pIC50,[10],5.93
C[C@@H]1CN(S(=O)(=O)c2cccc(C(=O)Nc3ccc4c(c3)C=CS(=O)(=O)O4)c2)C[C@H](C)O1,pKi,[11],7.00
same,pKi,[12],7.00
CC(=O)OC[C@H]1O[C@@H](n2c(-c3ccccc3)cs/c2=N\N=C\c2cc(=O)oc3ccc(OCC(C)C)cc23)[C@H](OC(C)=O)[C@@H](OC(C)=O)[C@@H]1OC(C)=O,pIC50,[8],5.93
same,pIC50,[13],6.82
same,pIC50,[9],5.93
same,pIC50,[10],5.93
same,pIC50,[14],6.82
CC(=O)OC[C@H]1O[C@@H](NC(=S)N/N=C(\C)c2c(O)c3ccccc3oc2=O)[C@H](OC(C)=O)[C@@H](OC(C)=O)[C@H]1OC(C)=O,pIC50,[3],5.89
same,pIC50,[4],5.89
same,pIC50,[5],5.89
same,pIC50,[6],5.89
same,pIC50,[7],5.89
O=C(Nc1ccc2c(c1)C=CS(=O)(=O)O2)c1cccc(S(=O)(=O)N2CCOCC2)c1,pKi,[11],7.00
same,pKi,[12],7.00
O=C(Nc1ccc2c(c1)C=CS(=O)(=O)O2)c1cccc(S(=O)(=O)N2CCCC2)c1,pKi,[11],7.00
same,pKi,[12],7.00
Cc1ccc(C(=O)Nc2ccc3c(c2)C=CS(=O)(=O)O3)cc1S(=O)(=O)N1CCCCC1,pKi,[11],7.00
same,pKi,[12],7.00
CCCCCOc1ccc2oc(=O)cc(C3SC(N(C(C)=O)[C@@H]4O[C@H](COC(C)=O)[C@@H](OC(C)=O)[C@H](OC(C)=O)[C@H]4OC(C)=O)=NN3C(C)=O)c2c1 (stereo partly drawn),pIC50,[15],5.93
same,pIC50,[16],5.93
same,pIC50,[13],6.89
same,pIC50,[17],5.93
same,pIC50,[14],6.66
COc1cccc2cc(/C(C)=N/NC(=S)N[C@@H]3O[C@H](COC(C)=O)[C@H](OC(C)=O)[C@H](OC(C)=O)[C@H]3OC(C)=O)c(=O)oc12,pIC50,[3],5.89
same,pIC50,[4],5.89
same,pIC50,[5],5.89
same,pIC50,[6],5.89
same,pIC50,[7],5.89
